From patent US4181732A, “1-Branched-alkylcarbonyl-3-(3,5-dihalophenyl)imidazolidine-2,4-diones” (Sumitomo Chemical Company, Limited, priority 1977, dated 1980) come the findings set out here.

Test [1] concerns blue mold of orange (Penicillium italicum). The experiment in a line: Protective activity test on blue mold of orange. Type of test: in vivo. As to conditions: orange fruits var. Unshu dipped 1 minute, index 0-5, 7 days after inoculation, no treatment 5.0. As for the experimental part:
Protective activity test on blue mold of orange (Penicillium italicum): Orange fruits (var.: Unshu) were well washed with water and air-dried. Each of the emulsifiable concentrates containing the test compounds was diluted with water to a required concentration and the air-dried orange fruits were dipped in the aqueous solution for 1 minute. After air-drying, the surface of the fruit was inoculated by spraying a spore suspension of Pencillium italicum cultured in a potato agar medium for 5 days. […] The results are shown in the mean value of disease index.

Test [2] relates to black spot of pear (Alternaria kikuchiana). The experiment in a line: Protective activity test on black spot of pear. Type of test: in vivo. As to conditions: 500 ppm active ingredient; pear var. 20-Seiki, sprayed 7 days before inoculation; no treatment 77.8.
The subject of test [3] is Alternaria leaf spot of apple (Alternaria mali). The experiment in a line: Protective activity test on Alternaria leaf spot of apple. It counts as in vivo. The conditions noted are these: 500 ppm active ingredient; apple var. Indo, sprayed 6 days before inoculation; no treatment 79.6.
Test [4] has as its system wild (susceptible) strain of Alternaria kikuchiana. The experiment in a line: Fungicidal activity test: mycelial growth inhibition on agar plate, wild susceptible strain. It counts as cell-based. As to conditions: 96 h, 27° C., 4 days, read-out: Percentage of growth inhibition, wild susceptible strain; for inhibition at 1 ppm: 1 ppm active ingredient; for inhibition at 10 ppm: 10 ppm active ingredient.

In test [5] the test system is fungicide-resistant strain of black spot fungus (Alternaria kikuchiana) resistant to Polyoxin. The experiment in a line: Fungicidal activity test on fungicide-resistant pathogens: mycelial growth inhibition on agar plate, Polyoxin-resistant strain. Type of test: cell-based. The conditions noted are these: 96 h, 27° C., 4 days, read-out: Percentage of growth inhibition, fungicide-resistant strain; for inhibition at 1 ppm: 1 ppm active ingredient; for inhibition at 10 ppm: 10 ppm active ingredient.

With `CC(C)C(=O)N1CC(=O)N(c2cc(Cl)cc(Cl)c2)C1=O` [Compound 1], the “Mean value of disease index” value in test [1] (100 ppm active ingredient) was 0.5. Also, the Disease severity in test [2] was 4.3%; in test [3], 7.2%.
Broadly, the inhibition is how much of the control response was suppressed. In the case of `CC(C)CC(=O)N1CC(=O)N(c2cc(Cl)cc(Cl)c2)C1=O` [Compound 2], the “Mean value of disease index” value in test [1] (100 ppm active ingredient) is reported as 0.0. Further, the Disease severity in test [2] is recorded as 3.0%; in test [3], 2.4%. In addition, the inhibition at 1 ppm came out at 78% in test [4] and 76% in test [5]. Further, the inhibition at 10 ppm came to 96% in test [4] and 95% in test [5].
Regarding `CC(C)(C)C(=O)N1CC(=O)N(c2cc(Cl)cc(Cl)c2)C1=O` [Compound 3], the “Mean value of disease index” value in test [1] (100 ppm active ingredient) is recorded as 0.2. Moreover, the Disease severity in test [2] came to 7.4%; in test [3], 9.6%.
Consider `CC(C)(C)CC(=O)N1CC(=O)N(c2cc(Cl)cc(Cl)c2)C1=O` [Compound 4], for which the “Mean value of disease index” value in test [1] (100 ppm active ingredient) stood at 0.4. In addition, the Disease severity is recorded as 8.9% in test [2] and 5.7% in test [3]. Also, the inhibition at 1 ppm in test [4] came to 64%; in test [5] it was 61%. Besides, the results for the inhibition at 10 ppm in test [4] and in test [5] were 92% and 93%, respectively.
`CC(C)CC(=O)N1CC(=O)N(c2cc(Br)cc(Br)c2)C1=O` [Compound 5]: the “Mean value of disease index” value in test [1] (100 ppm active ingredient) is 0.1. Besides, the Disease severity is 2.6% in test [2] and 3.0% in test [3].
In the case of `CCC(C)C(=O)N1CC(=O)N(c2cc(Cl)cc(Cl)c2)C1=O` (centres unmarked) [Compound 6], the Disease severity in test [2] is on record as 5.5%; in test [3] it was 8.1%.
As to `CCC(C)CC(=O)N1CC(=O)N(c2cc(Cl)cc(Cl)c2)C1=O` (centres unmarked) [Compound 7], the Disease severity in test [2] worked out at 3.7%; in test [3], 4.1%.
In the case of `CCC(CC)C(=O)N1CC(=O)N(c2cc(Cl)cc(Cl)c2)C1=O` [Compound 8], the Disease severity in test [2] turned out to be 4.0%; in test [3] it was 3.6%.
The like results for `CCCC(C)C(=O)N1CC(=O)N(c2cc(Cl)cc(Cl)c2)C1=O` (centres unmarked) [Compound 9] were, in that order, 2.1% and 1.7%.
Take `CC(C)CCC(=O)N1CC(=O)N(c2cc(Cl)cc(Cl)c2)C1=O` [Compound 10]: the Disease severity in test [2] is 9.8%; in test [3], 9.9%.
With `CCC(=O)N1CC(=O)N(c2cc(Cl)cc(Cl)c2)C1=O` [drawing 37, reference compound], in test [4], the inhibition at 1 ppm was 49% and the inhibition at 10 ppm was 68%. Besides, in test [5], the inhibition at 1 ppm amounted to 45% and the inhibition at 10 ppm amounted to 69%.
Regarding `CCC(=O)N1CC(=O)N(c2cc(Cl)cc(Cl)c2)C1=O` [drawing 38, reference compound], the Disease severity in test [2] is recorded as 31.6%.
For the compound `CCC(=O)N1CC(=O)N(c2cc(Cl)cc(Cl)c2)C1=O` [drawing 40, reference compound], the Disease severity in test [3] came to 36.8%.
Consider `CCC(=O)N1CC(=O)N(c2cc(Cl)cc(Cl)c2)C1=O` [drawing 43, reference compound], for which the “Mean value of disease index” value in test [1] (200 ppm active ingredient) was determined as 3.0.
`CC(=O)N1CC(=O)N(c2cc(Cl)cc(Cl)c2)C1=O` [reference compound]: the “Mean value of disease index” value in test [1] (200 ppm active ingredient) stood at 2.8.
